PubChem BioAssay (NCI)
Values joined by “and” are separate entries in the source; they are usually repeats but may differ in a detail not shown here. Identical values can stand only once.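 Following 48 hours of exposure in 96-well plates, responses at five concentrations were used to interpolate endpoints linearly. The concentration for 50% growth inhibition is given as GI50. TGI: concentration producing complete growth inhibition.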

Columns and labels:
Test in all cases: inhibition of tumour cell growth, NCI panel, 48 h
SNB-75 CNS = system: SNB-75 CNS
SK-OV-3 ovarian = system: SK-OV-3 ovarian
EKVX NSCLC = system: EKVX NSCLC
HT29 colon = system: HT29 colon
CAKI-1 renal = system: CAKI-1 renal
UO-31 renal = system: UO-31 renal
SNB-19 CNS = system: SNB-19 CNS
K-562 leukemia = system: K-562 leukemia
HOP-92 NSCLC = system: HOP-92 NSCLC
SK-MEL-28 melanoma = system: SK-MEL-28 melanoma

SMILES	TGI (SNB-75 CNS) [µM]	GI50 (SK-OV-3 ovarian) [µM]	TGI (SK-OV-3 ovarian) [µM]	GI50 (EKVX NSCLC) [µM]	TGI (EKVX NSCLC) [µM]	GI50 (HT29 colon) [µM]	TGI (HT29 colon) [µM]	GI50 (CAKI-1 renal) [µM]	TGI (CAKI-1 renal) [µM]	GI50 (UO-31 renal) [µM]	TGI (UO-31 renal) [µM]	GI50 (SNB-19 CNS)	TGI (SNB-19 CNS) [µM]	GI50 (K-562 leukemia) [µM]	TGI (K-562 leukemia) [µM]	TGI (HOP-92 NSCLC) [µM]	GI50 (SK-MEL-28 melanoma) [µM]	TGI (SK-MEL-28 melanoma) [µM]	GI50 (SNB-75 CNS) [µM]	GI50 (HOP-92 NSCLC) [µM]
N[C@H](C(=O)O)[C@@H]1CC(Cl)=NO1	> 1000	34.5	> 584	11.5	303	7.44	> 811	23.9	160	26.6	772	16.8 µM and 5.14 µM	> 661	7.16	> 944	541	28.9	> 1000		
Cc1cc(N(CC(C)Br)CC(C)Br)ccc1N=Nc1ccccc1C(=O)O (stereo unspecified)	11.2		39.7		21.8		14.2		6.9		37.5		23.5		4.8	10		5.43		
CC1(C)N=C(N)N=C(N)N1c1ccc(CCC(=O)Nc2ccc(S(=O)(=O)F)cc2)c(Cl)c1	> 100	8.56	> 100	2.78	> 100	0.15	> 100	7.73	> 81.1	63.6	> 100	5.22 µM	> 100	0.342	> 100	> 100	22.8	> 100	9.75	6.54
O=C(Oc1ccc[nH]c1=O)c1cc([N+](=O)[O-])cc([N+](=O)[O-])c1	> 100	> 100	> 100	> 100	> 100	> 100	> 100	35.7	> 100	23.6	> 100	> 100 µM	> 100	34.9	> 100	> 100	> 100	> 100	> 100	> 100
CC(C)C(O)(C(C)C)C(C)C	> 100		> 100		> 100		> 100		> 100		> 100		> 100		> 100	> 100		> 100		
O=C1C=CC(=O)C2C1C1(Cl)C(Cl)=C(Cl)C2(Cl)C1(Cl)Cl (stereo unspecified)	5.48	7.85	21.1	1.56	7.48	7.54	23.9	2.84	12.1	3.41	16.1	11.2 µM	25.4	2.58	10.8	6.88	9.63	21.8	1.13	1.69
COc1ccc(C=O)cc1O[Si](C)(C)C(C)(C)C	> 100		> 100		> 100		> 100		> 100		> 100		> 100		> 100	> 100				
CCCC1(CC(=O)O)OCCc2c1[nH]c1ccccc21 (stereo unspecified)	> 100		> 100		> 100				> 100		> 100		> 100		> 100	> 100		> 100		
